Experiments:
Assay type in all cases: physicochemical
[1] = UV/Vis absorbance at 400 nm and Yellowness Index of the ring-open isomer; conditions: for Abs @ 400 nm, RO (Absorption of ring-open isomer at 400 nm): 2×10^−5 M solution, 1 cm pathlength cuvette
Excerpt: In addition to the above, chromophores should have acceptable colour for both the ring-opened and ring-closed isomers. For example, the ring-open isomer of the chromophore should have a Yellowness Index (YI) of less than about 10 and an absorbance at 400 nm, as measured for a 2×10^−5 M solution in a 1 cm pathlength cuvette. For the ring-closed isomer of the chromophore, the lambda max should be between about 475 nm and 700 nm, tunable according to desired colour and number of chromophores in the composition.
(§1) UV/Vis spectra were obtained using an OceanOptics™ Spectrophotometer. A 2×10^−5 M solution of compound in solvent was prepared, and photofaded using visible light until absorption in the visible region of the spectrum stabilized. The sample was then irradiated with simulated sunlight (QSUN SS-150 Solar Simulator with xenon arc lamp) until the absorption spectrum stabilized. To obtain PSS in the presence of a UV blocking film, a second sample was prepared and irradiated as described, with a UV blocking film inserted in the light path when irradiating.

[2] = Photostationary state (PSS) and lambda max under simulated sunlight (solar simulator); conditions: for PSS (Steady State): head of Table 3; for PSS (Steady State) / PSS (SS): absorbance at photostationary state, 2×10^−5 M solution; for λmax (nm): peak in the visible range, ring-closed (dark) state; for PSS (SS): simulated sunlight (solar simulator)
Excerpt: The term “photostationary state” (PSS) refers to an equilibrium state of a compound or material where the rate of the ring closing (forward) reaction is equal to the rate of the ring-opening reaction, when irradiated with light in a given region of the spectrum. In other words, the ratio of the ring-open isomer to the ring-closed isomer is at an equilibrium. PSS may be expressed with reference to a light source, or with reference to a type of light, for example, QUV, Xenon-arc lamp, Q-SUN, natural or filtered sunlight, UV, VIS, IR, NIR, full spectrum or the like, or with reference to a particular wavelength or range of wavelengths, or in the presence or absence of a filter. Some ring-open and ring-closed isomers may undergo isomerization from one to the other in response to different wavelengths of light. If a wavelength of light is used where only one of the isomers absorbs, irradiation results in complete isomerization to the other form. 254 nm, 313 nm or 365 nm light are commonly used in studies of UV-absorbing isomers, but this may not be representative of the PSS under other light conditions that include the visible spectrum such as natural or simulated sunlight (“full spectrum” light) and/or with filters that block a portion of the UV component of the light. For example, in a ring-closed (dark) state, the magnitude of the maximum absorbance in the visible range may change with the light source (FIG. 1). The wavelength at this peak in the visible range may be referred to as lambda max, or λmax. […] When full spectrum light from a solar simulator (Xenon arc lamp) is used as a light source (line B), a balance is achieved between the ring-closed (dark) state induced by the UV component, and a ring-open (faded) state induced by the visible component of the light. Inclusion of a UV blocking layer in the light path (line A) may reduce the UV component of the light, and the ring-opening reaction induced by the visible light component becomes more prominent. […] Where desired, the ratio of ring-open and ring-closed isomers at a PSS may be quantified by ^1H NMR spectroscopy, such as described in U.S. Pat. No. 7,777,055. In various embodiments, compounds with an increased absorbance at a photostationary state (PSS), or increased contrast ratio, are an improvement over other diarylethene compounds. A compound with a greater absorbance in the visible range can be used in lesser quantities in a formulation or material to achieve a desired contrast ratio, whereas a compound with a lower absorbance at a PSS may need a higher concentration to achieve a desired contrast ratio.
Photostationary State (PSS)
as §1

[3] = Solubility in Rhodiasolv IRIS solvent; conditions: for Solubility in Rhodiasolv IRIS: Rhodiasolv IRIS (dimethyl-2-methyl glutarate), wt %; for Solubility (in words): relative to the methoxy parent chromophore
Excerpt: A compound with greater solubility allows for a formulation or material with a greater concentration of coloured molecule to be incorporated into a composition. This may allow for increasing the contrast ratio for a compound with a lesser absorbance at PSS. Examples of solubilizing groups for the compound include alkoxy, ether, ester or siloxy groups. In various embodiments, compounds may be soluble in the solvent component at room temperature at about 6 wt %, 7 wt %, 8 wt %, 9 wt %, 10 wt % or greater for testing to determine whether a compound has application as an exterior glazing or optical filter. If the solubility of a compound in the solvent component is too low, then insufficient darkening may be achieved in the ring-closed configuration, depending on conditions of use for the compound.
Chromophore solutions in Rhodiasolv IRIS were prepared at 1 to 10 wt % loading. Solutions were prepared in a glovebox by charging the chromophore and Rhodiasolv IRIS to a trace-clean vial, and the solution was stirred on a hotplate at 90° C. for 2-24 hours. After cooling, the chromophore solution was injected into glass weathering cells and the fill and vent ports were sealed with a thin disc of Kalrez (FFKM Perfluorinated Elastomer) and secured with a clamp and set-screw. The weathering cells were filled and sealed inside the glove box.

[4] = Oxidation potential of ring-closed and ring-open isomers; conditions: no unit printed in table (V relative to Ag/AgCl)
Excerpt: In various embodiments, at a PSS, some of the chromophore will be in the ring-closed isomer, with a small, but non-zero portion of ring-open isomer. The oxidation potential of a ring-open isomer may be more anodic than the oxidation potential of a ring-closed isomer. Exposure to a potential that is too far beyond what is necessary to oxidize the ring-closed isomer may result in oxidation of the ring-open isomer, which may be irreversible and result in electrochemically-induced degradation of the chromophore.
Thus, in various embodiments, an anodic chromophore may have an oxidation potential of from about 0.4 V to 1.2 V for the ring-closed isomer and about 1.0 V to 2.5 V for the ring-open isomer relative to an Ag/AgCl reference electrode. In various embodiments, the oxidation potential for the ring-open isomer is about 250 mV more anodic than the oxidation potential for the ring-closed isomer. For example, the oxidation potential may be about 260 mV, about 280 mV, about 300 mV, about 320 mV, about 340 mV, about 360 mV, about 380 mV, about 400 mV, about 420 mV, about 440 mV, or about 460 mV more anodic than the oxidation potential for the ring-closed isomer.

Row | Structure (SMILES) | YI (Yellowness Index) [1] | Abs @ 400 nm, RO (Absorption of ring-open isomer at 400 nm) [1] | PSS (Steady State) [2] | λmax (nm) [2] | Solubility in Rhodiasolv IRIS [3] | Solubility (in words) [3] | RC [O] (oxidation potential of ring-closed isomer) [4] | RO [O] (oxidation potential of ring-open isomer) [4] | PSS (SS) [2]
1 | CCOC(=O)CCCOc1cc2oc(-c3ccc(C(C)(C)C)cc3)c(C3=C(c4cc(-c5ccc(C(C)(C)C)s5)sc4-c4ccc(C(C)(C)C)s4)C(F)(F)C(F)(F)C3(F)F)c2cc1OCCCC(=O)OCC [Chromophore S374, diethyl 4,4′-((2-(4-(tert-butyl)phenyl)-3-(2-(5,5″-di-tert-butyl-[2,2′:5′,2″-terthiophen]-3′-yl)-3,3,4,4,5,5-hexafluorocyclopent-1-en-1-yl)benzofuran-5,6-diyl)bis(oxy))dibutanoate] | 6.76 | 0.144 | 0.422 | 590 nm | >10% | improved | 0.93 | 1.35 | –
2 | COc1cc2oc(-c3ccc(C(C)(C)C)cc3)c(C3=C(c4cc(-c5cc(C(C)(C)C)cs5)sc4-c4cc(C(C)(C)C)cs4)C(F)(F)C(F)(F)C3(F)F)c2cc1OC [Chromophore S377, 2-(4-(tert-butyl)phenyl)-3-(2-(4,4″-di-tert-butyl-[2,2′:5′,2″-terthiophen]-3′-yl)-3,3,4,4,5,5-hexafluorocyclopent-1-en-1-yl)-5,6-dimethoxybenzofuran] | 4.89 | 0.101 | – | 593 nm | >5% | – | 0.97 | 1.42 | 0.308
3 | COc1cc2oc(-c3ccc(C(C)(C)C)cc3)c(C3=C(c4cc(-c5ccc(C(C)(C)C)s5)sc4-c4sc(C(C)(C)C)cc4C)C(F)(F)C(F)(F)C3(F)F)c2cc1OC [Chromophore S378, 2-(4-(tert-butyl)phenyl)-3-(2-(5,5″-di-tert-butyl-3-methyl-[2,2′:5′,2″-terthiophen]-3′-yl)-3,3,4,4,5,5-hexafluorocyclopent-1-en-1-yl)-5,6-dimethoxybenzofuran] | 4.94 | 0.127 | 0.351 | 593 nm | <5% | – | 0.9 | 1.36 | –
4 | CCOC(=O)CCCOc1cc2oc(-c3ccc(C(C)(C)C)cc3)c(C3=C(c4cc(-c5ccc(C(C)(C)C)s5)sc4-c4sc(C(C)(C)C)cc4C)C(F)(F)C(F)(F)C3(F)F)c2cc1OCCCC(=O)OCC [Chromophore S383, diethyl 4,4′-((2-(4-(tert-butyl)phenyl)-3-(2-(5,5″-di-tert-butyl-3-methyl-[2,2′:5′,2″-terthiophen]-3′-yl)-3,3,4,4,5,5-hexafluorocyclopent-1-en-1-yl)benzofuran-5,6-diyl)bis(oxy))dibutanoate] | 4.52 | 0.144 | 0.408 | 590 nm | >10% | improved solubility | 0.91 | 1.36 | –
5 | CCOC(=O)CCCOc1cc2oc(-c3ccc(C(C)(C)C)cc3)c(C3=C(c4cc(-c5sc(C(C)(C)C)cc5C)sc4-c4sc(C(C)(C)C)cc4C)C(F)(F)C(F)(F)C3(F)F)c2cc1OCCCC(=O)OCC [Chromophore S384, diethyl 4,4′-((2-(4-(tert-butyl)phenyl)-3-(2-(5,5″-di-tert-butyl-3,3″-dimethyl-[2,2′:5′,2″-terthiophen]-3′-yl)-3,3,4,4,5,5-hexafluorocyclopent-1-en-1-yl)benzofuran-5,6-diyl)bis(oxy))dibutanoate] | 4.13 | 0.107 | 0.342 | 593 nm | >10% | – | 0.87 | 1.31 | –
6 | CCOC(=O)CCCOc1cc2oc(-c3ccc(C(C)(C)C)cc3)c(C3=C(c4cc(-c5cc(C(C)(C)C)cs5)sc4-c4cc(C(C)(C)C)cs4)C(F)(F)C(F)(F)C3(F)F)c2cc1OCCCC(=O)OCC [Chromophore S386, diethyl 4,4′-((2-(4-(tert-butyl)phenyl)-3-(2-(4,4″-di-tert-butyl-[2,2′:5′,2″-terthiophen]-3′-yl)-3,3,4,4,5,5-hexafluorocyclopent-1-en-1-yl)benzofuran-5,6-diyl)bis(oxy))dibutanoate] | 4.05 | 0.113 | – | 593 nm | >10% | – | 0.99 | 1.4 | 0.351
7 | CCOC(=O)CCCOc1cc2oc(-c3ccc(C(C)(C)C)cc3)c(C3=C(c4cc(-c5cc6c(s5)C(C)(C)CCC6(C)C)sc4-c4cc5c(s4)C(C)(C)CCC5(C)C)C(F)(F)C(F)(F)C3(F)F)c2cc1OCCCC(=O)OCC [Chromophore S387, ethyl 4-[(3-{2-[2,5-bis(4,4,7,7-tetramethyl-4,5,6,7-tetrahydro-1-benzothiophen-2-yl)thiophen-3-yl]-3,3,4,4,5,5-hexafluorocyclopent-1-en-1-yl}-2-(4-tert-butylphenyl)-6-(4-ethoxy-4-oxobutoxy)-1-benzofuran-5-yl)oxy]butanoate] | 8.15 | 0.146 | – | 594 nm | >10% | – | 0.92 | 1.29 | 0.409
